Results reported in US9828360B2 (Array BioPharma Inc., priority 2012, dated 2017).

Tests used:
Assay in all cases: KinaseProfiler off-target kinase profiling
Assay type in all cases: biochemical
Conditions in all cases: 10 μM, ATP near Km
[1] = target: T1, EGFR (Homo sapiens, UniProt P00533)
T1 construct: purchased Millipore, Inc. (KinaseProfiler service)
Method: (§1) A representative compound of the invention (Example 48) was tested for off-target kinase activity at a concentration of 10 μM by Millipore, Inc. in their KinaseProfiler™ service against all the kinases available in their full kinase panel. The compound was run in duplicate at a concentration of ATP near the Km for each individual kinase according to Millipore's specifications. The results are shown in Table B. Data are reported as percent of control (POC) and are the average of the two replicates.

[2] = target: T2, PDK1 (Homo sapiens, UniProt O15530)
T2 construct: purchased Millipore, Inc. (KinaseProfiler service)
Method: as §1

[3] = target: T3, TAO3 (Homo sapiens, UniProt Q9H2K8)
T3 construct: purchased Millipore, Inc. (KinaseProfiler service)
Method: as §1

[4] = target: T4, Fes (Homo sapiens, UniProt P07332)
T4 construct: purchased Millipore, Inc. (KinaseProfiler service)
Method: as §1

[5] = target: T5, Pim-2 (Homo sapiens, UniProt Q9P1W9)
T5 construct: purchased Millipore, Inc. (KinaseProfiler service)
Method: as §1

[6] = target: T6, NLK (Homo sapiens, UniProt Q9UBE8)
T6 construct: purchased Millipore, Inc. (KinaseProfiler service)
Method: as §1

[7] = target: T7, MARK1 (Homo sapiens, UniProt Q9P0L2)
T7 construct: purchased Millipore, Inc. (KinaseProfiler service)
Method: as §1

[8] = target: T8, DAPK1 (Homo sapiens, UniProt P53355)
T8 construct: purchased Millipore, Inc. (KinaseProfiler service)
Method: as §1

[9] = target: T9, WNK3 (Homo sapiens, UniProt Q9BYP7)
T9 construct: purchased Millipore, Inc. (KinaseProfiler service)
Method: as §1

[10] = target: T10, EphA1 (Homo sapiens, UniProt P21709)
T10 construct: purchased Millipore, Inc. (KinaseProfiler service)
Method: as §1

[11] = target: T11, Flt3 (Homo sapiens, UniProt P36888)
T11 construct: purchased Millipore, Inc. (KinaseProfiler service)
Method: as §1

[12] = target: T12, PKCzeta (Homo sapiens, UniProt Q05513)
T12 construct: purchased Millipore, Inc. (KinaseProfiler service)
Method: as §1

[13] = target: T13, AURKA (Homo sapiens, UniProt O14965)
T13 construct: purchased Millipore, Inc. (KinaseProfiler service)
Method: as §1

[14] = target: T14, BTK (Homo sapiens, UniProt Q06187)
T14 construct: purchased Millipore, Inc. (KinaseProfiler service)
Method: as §1

[15] = target: T15, Rse (Homo sapiens, UniProt Q06418)
T15 construct: purchased Millipore, Inc. (KinaseProfiler service)
Method: as §1

[16] = target: T16, MKK6 (Homo sapiens, UniProt P52564)
T16 construct: purchased Millipore, Inc. (KinaseProfiler service)
Method: as §1

[17] = target: T17, IRR (Homo sapiens, UniProt P14616)
T17 construct: purchased Millipore, Inc. (KinaseProfiler service)
Method: as §1

[18] = target: T18, ErbB4 (Homo sapiens, UniProt Q15303)
T18 construct: purchased Millipore, Inc. (KinaseProfiler service)
Method: as §1

[19] = target: T19, Fyn (Homo sapiens, UniProt P06241)
T19 construct: purchased Millipore, Inc. (KinaseProfiler service)
Method: as §1

[20] = target: T20, FGFR4 (Homo sapiens, UniProt P22455)
T20 construct: purchased Millipore, Inc. (KinaseProfiler service)
Method: as §1

[21] = target: T21, Bmx (Homo sapiens, UniProt P51813)
T21 construct: purchased Millipore, Inc. (KinaseProfiler service)
Method: as §1

[22] = target: T22, CAMK4 (Homo sapiens, UniProt Q16566)
T22 construct: purchased Millipore, Inc. (KinaseProfiler service)
Method: as §1

[23] = target: T23, IR Activated (Homo sapiens, UniProt P06213)
T23 construct: purchased Millipore, Inc. (KinaseProfiler service)
Method: as §1

[24] = target: T24, SGK1 (Homo sapiens, UniProt O00141, S422D)
T24 construct: purchased Millipore, Inc. (KinaseProfiler service)
Method: as §1

[25] = target: T25, CK2 (Homo sapiens, UniProt P68400)
T25 construct: purchased Millipore, Inc. (KinaseProfiler service)
Method: as §1

[26] = target: T26, MLK1 (Homo sapiens, UniProt P80192)
T26 construct: purchased Millipore, Inc. (KinaseProfiler service)
Method: as §1

[27] = target: T27, TSSK2 (Homo sapiens, UniProt Q96PF2)
T27 construct: purchased Millipore, Inc. (KinaseProfiler service)
Method: as §1

[28] = target: T28, CAMK2d (Homo sapiens, UniProt Q13557)
T28 construct: purchased Millipore, Inc. (KinaseProfiler service)
Method: as §1

[29] = target: T29, PKAC-alpha (Homo sapiens, UniProt P17612)
T29 construct: purchased Millipore, Inc. (KinaseProfiler service)
Method: as §1

[30] = target: T30, FGFR3 (Homo sapiens, UniProt P22607)
T30 construct: purchased Millipore, Inc. (KinaseProfiler service)
Method: as §1

[31] = target: T31, JAK2 (Homo sapiens, UniProt O60674)
T31 construct: purchased Millipore, Inc. (KinaseProfiler service)
Method: as §1

[32] = target: T32, SGK2 (Homo sapiens, UniProt Q9HBY8)
T32 construct: purchased Millipore, Inc. (KinaseProfiler service)
Method: as §1

[33] = target: T33, MKNK2 (Homo sapiens, UniProt Q9HBH9)
T33 construct: purchased Millipore, Inc. (KinaseProfiler service)
Method: as §1

[34] = target: T34, p38gamma (Homo sapiens, UniProt P53778)
T34 construct: purchased Millipore, Inc. (KinaseProfiler service)
Method: as §1

[35] = target: T35, DCAMKL2 (Homo sapiens, UniProt Q8N568)
T35 construct: purchased Millipore, Inc. (KinaseProfiler service)
Method: as §1

[36] = target: T36, Flt1 (Homo sapiens, UniProt P17948)
T36 construct: purchased Millipore, Inc. (KinaseProfiler service)
Method: as §1

[37] = target: T37, AKT3 (Homo sapiens, UniProt Q9Y243)
T37 construct: purchased Millipore, Inc. (KinaseProfiler service)
Method: as §1

[38] = target: T38, PASK (Homo sapiens, UniProt Q96RG2)
T38 construct: purchased Millipore, Inc. (KinaseProfiler service)
Method: as §1

[39] = target: T39, SRPK2 (Homo sapiens, UniProt P78362)
T39 construct: purchased Millipore, Inc. (KinaseProfiler service)
Method: as §1

[40] = target: T40, Plk1 (Homo sapiens, UniProt P53350)
T40 construct: purchased Millipore, Inc. (KinaseProfiler service)
Method: as §1

[41] = target: T41, Rsk1 (Homo sapiens, UniProt Q15418)
T41 construct: purchased Millipore, Inc. (KinaseProfiler service)
Method: as §1

T14 sequence (Q06187 whole entry): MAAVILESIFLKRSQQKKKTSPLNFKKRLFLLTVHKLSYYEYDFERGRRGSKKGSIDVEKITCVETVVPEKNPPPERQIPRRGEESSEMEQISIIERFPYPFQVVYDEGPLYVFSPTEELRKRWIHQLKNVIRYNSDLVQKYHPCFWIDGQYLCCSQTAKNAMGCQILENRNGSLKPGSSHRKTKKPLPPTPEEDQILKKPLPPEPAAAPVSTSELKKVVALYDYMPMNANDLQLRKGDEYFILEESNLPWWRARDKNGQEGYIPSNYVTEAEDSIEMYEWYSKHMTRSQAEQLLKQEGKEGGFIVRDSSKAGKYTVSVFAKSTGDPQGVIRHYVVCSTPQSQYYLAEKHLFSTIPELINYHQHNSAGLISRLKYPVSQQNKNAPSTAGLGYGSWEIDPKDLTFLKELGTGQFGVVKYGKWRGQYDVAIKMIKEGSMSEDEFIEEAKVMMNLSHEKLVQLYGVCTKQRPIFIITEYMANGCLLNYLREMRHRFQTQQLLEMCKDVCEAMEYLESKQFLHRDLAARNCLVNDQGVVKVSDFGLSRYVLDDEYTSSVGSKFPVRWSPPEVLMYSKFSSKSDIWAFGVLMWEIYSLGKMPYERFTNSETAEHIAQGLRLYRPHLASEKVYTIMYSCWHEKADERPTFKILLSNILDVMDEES
T36 sequence (P17948 27-1338): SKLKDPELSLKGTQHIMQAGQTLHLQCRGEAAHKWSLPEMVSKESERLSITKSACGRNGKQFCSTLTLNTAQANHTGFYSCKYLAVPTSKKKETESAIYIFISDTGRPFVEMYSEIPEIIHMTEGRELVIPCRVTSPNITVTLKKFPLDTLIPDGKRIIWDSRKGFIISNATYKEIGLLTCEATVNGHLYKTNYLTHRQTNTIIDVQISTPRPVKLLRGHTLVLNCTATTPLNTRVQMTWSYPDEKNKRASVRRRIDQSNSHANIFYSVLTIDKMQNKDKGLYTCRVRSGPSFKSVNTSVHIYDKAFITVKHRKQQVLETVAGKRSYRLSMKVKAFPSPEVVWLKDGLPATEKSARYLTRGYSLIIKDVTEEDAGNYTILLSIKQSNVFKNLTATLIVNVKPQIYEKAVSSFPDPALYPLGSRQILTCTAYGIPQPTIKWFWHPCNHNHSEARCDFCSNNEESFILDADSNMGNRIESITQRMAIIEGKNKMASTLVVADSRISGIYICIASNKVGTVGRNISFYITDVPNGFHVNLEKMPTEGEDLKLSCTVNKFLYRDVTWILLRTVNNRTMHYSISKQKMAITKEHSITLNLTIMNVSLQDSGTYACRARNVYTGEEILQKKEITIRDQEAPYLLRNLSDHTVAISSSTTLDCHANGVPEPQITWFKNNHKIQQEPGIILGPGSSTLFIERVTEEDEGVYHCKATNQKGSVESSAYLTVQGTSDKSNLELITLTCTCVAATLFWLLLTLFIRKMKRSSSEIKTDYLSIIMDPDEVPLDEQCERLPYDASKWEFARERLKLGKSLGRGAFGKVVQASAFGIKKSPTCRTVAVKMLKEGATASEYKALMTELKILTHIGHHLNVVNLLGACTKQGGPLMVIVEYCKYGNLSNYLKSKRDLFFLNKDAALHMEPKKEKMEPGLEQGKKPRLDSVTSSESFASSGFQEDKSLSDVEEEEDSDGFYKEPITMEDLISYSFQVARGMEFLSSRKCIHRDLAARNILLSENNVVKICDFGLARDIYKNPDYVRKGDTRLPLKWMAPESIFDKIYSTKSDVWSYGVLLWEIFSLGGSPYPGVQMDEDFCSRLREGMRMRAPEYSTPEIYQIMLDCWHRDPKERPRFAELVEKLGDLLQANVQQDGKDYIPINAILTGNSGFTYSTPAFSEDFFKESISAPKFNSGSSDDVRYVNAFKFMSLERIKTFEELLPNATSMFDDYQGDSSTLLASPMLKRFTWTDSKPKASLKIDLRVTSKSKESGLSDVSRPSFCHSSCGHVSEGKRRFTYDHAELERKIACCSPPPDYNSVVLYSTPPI
T32 sequence (Q9HBY8 whole entry): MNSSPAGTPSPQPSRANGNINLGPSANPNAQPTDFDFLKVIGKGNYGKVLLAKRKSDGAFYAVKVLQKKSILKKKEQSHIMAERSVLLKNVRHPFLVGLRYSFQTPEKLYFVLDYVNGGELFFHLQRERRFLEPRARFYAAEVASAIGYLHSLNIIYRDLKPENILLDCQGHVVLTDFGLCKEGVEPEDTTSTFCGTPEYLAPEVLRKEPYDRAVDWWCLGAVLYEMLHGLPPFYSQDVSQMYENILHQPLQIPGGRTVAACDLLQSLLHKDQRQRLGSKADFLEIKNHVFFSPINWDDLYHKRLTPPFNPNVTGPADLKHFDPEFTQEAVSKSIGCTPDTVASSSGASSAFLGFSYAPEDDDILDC
T30 sequence (P22607 23-806): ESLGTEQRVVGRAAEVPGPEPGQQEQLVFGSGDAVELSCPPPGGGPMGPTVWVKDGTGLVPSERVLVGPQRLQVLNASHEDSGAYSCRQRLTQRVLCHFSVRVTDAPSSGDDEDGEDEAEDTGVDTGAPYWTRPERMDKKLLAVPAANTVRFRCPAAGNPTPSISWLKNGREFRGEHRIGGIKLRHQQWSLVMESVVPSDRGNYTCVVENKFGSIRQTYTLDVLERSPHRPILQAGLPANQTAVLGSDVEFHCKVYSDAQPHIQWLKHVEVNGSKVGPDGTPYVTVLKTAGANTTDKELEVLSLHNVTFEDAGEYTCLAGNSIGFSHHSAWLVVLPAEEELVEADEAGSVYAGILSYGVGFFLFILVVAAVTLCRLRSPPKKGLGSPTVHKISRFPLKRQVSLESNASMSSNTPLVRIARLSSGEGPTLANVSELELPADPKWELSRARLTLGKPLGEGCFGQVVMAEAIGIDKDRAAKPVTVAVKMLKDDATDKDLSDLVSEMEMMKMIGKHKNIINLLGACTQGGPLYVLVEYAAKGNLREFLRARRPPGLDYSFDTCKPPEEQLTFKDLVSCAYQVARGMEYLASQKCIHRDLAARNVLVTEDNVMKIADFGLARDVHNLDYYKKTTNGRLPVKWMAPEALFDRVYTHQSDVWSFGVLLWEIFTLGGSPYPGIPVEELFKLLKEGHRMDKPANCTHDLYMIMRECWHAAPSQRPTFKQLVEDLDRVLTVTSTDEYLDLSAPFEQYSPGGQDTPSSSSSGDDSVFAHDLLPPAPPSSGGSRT
T23 sequence (P06213 28-1382): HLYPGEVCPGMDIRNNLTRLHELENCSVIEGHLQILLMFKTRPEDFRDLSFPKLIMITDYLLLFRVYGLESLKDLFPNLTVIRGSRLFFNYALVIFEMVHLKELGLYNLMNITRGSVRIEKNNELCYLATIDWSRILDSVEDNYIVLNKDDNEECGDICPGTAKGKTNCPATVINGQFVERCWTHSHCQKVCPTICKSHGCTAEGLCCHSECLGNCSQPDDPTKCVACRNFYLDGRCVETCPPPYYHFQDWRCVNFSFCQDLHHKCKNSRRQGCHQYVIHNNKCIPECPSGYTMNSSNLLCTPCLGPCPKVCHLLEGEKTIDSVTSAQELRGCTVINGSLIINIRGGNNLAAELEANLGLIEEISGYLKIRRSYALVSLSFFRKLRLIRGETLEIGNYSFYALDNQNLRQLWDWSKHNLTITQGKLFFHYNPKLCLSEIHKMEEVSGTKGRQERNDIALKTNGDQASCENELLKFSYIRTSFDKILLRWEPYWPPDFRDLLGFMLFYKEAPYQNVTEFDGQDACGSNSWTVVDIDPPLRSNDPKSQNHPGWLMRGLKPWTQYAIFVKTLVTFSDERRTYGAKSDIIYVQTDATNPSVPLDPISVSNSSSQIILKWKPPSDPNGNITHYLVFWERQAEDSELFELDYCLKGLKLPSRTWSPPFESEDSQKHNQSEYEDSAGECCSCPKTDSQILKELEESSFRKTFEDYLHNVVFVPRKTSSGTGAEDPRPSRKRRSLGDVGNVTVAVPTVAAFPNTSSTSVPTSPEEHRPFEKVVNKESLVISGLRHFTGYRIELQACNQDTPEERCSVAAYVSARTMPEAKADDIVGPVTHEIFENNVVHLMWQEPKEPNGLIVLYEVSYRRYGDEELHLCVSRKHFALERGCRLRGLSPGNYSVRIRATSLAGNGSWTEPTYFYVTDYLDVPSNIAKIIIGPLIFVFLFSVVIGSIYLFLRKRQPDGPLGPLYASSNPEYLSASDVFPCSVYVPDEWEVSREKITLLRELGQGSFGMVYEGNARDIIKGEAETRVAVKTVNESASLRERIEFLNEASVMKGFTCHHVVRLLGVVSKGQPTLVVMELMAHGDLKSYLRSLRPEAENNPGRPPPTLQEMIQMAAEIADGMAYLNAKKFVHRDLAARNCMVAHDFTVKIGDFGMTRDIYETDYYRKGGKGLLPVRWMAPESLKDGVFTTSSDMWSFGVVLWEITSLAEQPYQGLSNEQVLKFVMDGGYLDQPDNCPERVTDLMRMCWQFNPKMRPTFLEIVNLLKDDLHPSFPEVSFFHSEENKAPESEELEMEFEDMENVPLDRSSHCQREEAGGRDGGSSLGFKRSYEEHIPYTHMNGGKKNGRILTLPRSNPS
T6 sequence (Q9UBE8 whole entry): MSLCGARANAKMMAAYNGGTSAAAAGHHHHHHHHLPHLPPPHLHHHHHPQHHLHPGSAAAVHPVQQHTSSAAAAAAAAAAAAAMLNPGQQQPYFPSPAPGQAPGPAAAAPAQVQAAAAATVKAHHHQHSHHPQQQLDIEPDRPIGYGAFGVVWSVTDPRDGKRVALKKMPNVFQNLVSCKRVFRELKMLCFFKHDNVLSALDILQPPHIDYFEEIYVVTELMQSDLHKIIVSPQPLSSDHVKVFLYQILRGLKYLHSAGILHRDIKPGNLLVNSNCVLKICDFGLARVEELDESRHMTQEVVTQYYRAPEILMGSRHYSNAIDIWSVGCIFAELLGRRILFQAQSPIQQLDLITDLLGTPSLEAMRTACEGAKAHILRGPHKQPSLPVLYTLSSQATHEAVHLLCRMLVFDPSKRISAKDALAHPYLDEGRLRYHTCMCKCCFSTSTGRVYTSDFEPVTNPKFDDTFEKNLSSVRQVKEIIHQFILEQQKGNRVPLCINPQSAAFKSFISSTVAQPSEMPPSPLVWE

Avg POC [1]: 111% of control | Avg POC [2]: 85.5% of control | Avg POC [3]: 105.5% of control | Avg POC [4]: 86.5% of control | Avg POC [5]: 104% of control | Avg POC [6]: 108.5% of control | Avg POC [7]: 113% of control | Avg POC [8]: 114.5% of control | Avg POC [9]: 99.5% of control | Avg POC [10]: 113.5% of control | Avg POC [11]: 99% of control | Avg POC [12]: 108% of control | Avg POC [13]: 133% of control | Avg POC [14]: 97.5% of control | Avg POC [15]: 117% of control | Avg POC [16]: 121% of control | Avg POC [17]: 110.5% of control | Avg POC [18]: 97% of control | Avg POC [19]: 108.5% of control | Avg POC [20]: 102.5% of control | Avg POC [21]: 122% of control | Avg POC [22]: 101.5% of control | Avg POC [23]: 111.5% of control | Avg POC [24]: 125% of control | Avg POC [25]: 106% of control | Avg POC [26]: 115% of control | Avg POC [27]: 124% of control | Avg POC [28]: 99% of control | Avg POC [29]: 98.5% of control | Avg POC [30]: 103.5% of control | Avg POC [31]: 123.5% of control | Avg POC [32]: 121.5% of control | Avg POC [33]: 96% of control | Avg POC [34]: 120.5% of control | Avg POC [35]: 142% of control | Avg POC [36]: 96.5% of control | Avg POC [37]: 106.5% of control | Avg POC [38]: 103% of control | Avg POC [39]: 109% of control | Avg POC [40]: 93% of control | Avg POC [41]: 121% of control
SMILES: COCCN1C[C@@H](NC(=O)Nc2sc(C(C)C)nc2-c2ccccc2)[C@H](c2ccccc2)C1 [Example 48, 1-(2-isopropyl-4-phenylthiazol-5-yl)-3-((3S,4R)-1-(2-methoxyethyl)-4-phenylpyrrolidin-3-yl)urea]
